Results: patent EP0680964B1, “PYRROLO [3,2-e]INDOLE DERIVATIVES, PROCESS FOR THE PREPARATION THEREOF AND THEIR USE” (UNIVERSIDAD DE SANTIAGO DE COMPOSTELA, priority 1993, dated 1995)
Values after ≈ are worked out from the molar mass of the structure shown.

How the values were obtained:
[1] = system: P388 leukemic tumor model; test: P388 antitumoral model in vivo (survival time, i.p. treatment); set-up: species or system mice; conditions: for %C/T: average survival of tested group/average survival of controls
Experimental: Normally, 1x10^6 cells in ascitic fluid was implanted i.p. in CD2F1 mice. Treatment with the agent tested i.p. began one day after the tumor had been implanted and it is continued daily up to a total of 5 injections for synthetic products and of 9 injections for raw natural products. The results are expressed as percentage of the control survival time.
CDFl mice weighing 18-22 gr (+/- 3 gr) were implanted on day 0 of the test period o.1 ml. of a dilution of 1.0x10^7 tumor cells coming from DBA/2N mice used for the propagation of the tumor.
On day 1 of the test period the animals were grouped at random in groups of six animals.Each group is weighed and the average weight is written down. Each compound to be tested in diluted in 4 levels of dosis for each multidose test as of the determination of the highest nontoxic dose (v.g. 400 mg/kg; 100 mg/kg; 10 mg/kg.)
Administration of the test compounds is started on day 1 using volumns of 1/2 drug injected i.p. Injections are given on days 1 to 9 of the test period, unless it is indicated to the contrary. The animals are weighed on day 5, which is the one which in this system is considered the day of toxicity. Toxicity in this test system is defined as: • A. 34 % deaths up to day 5 - acute toxicity • B. C/T<85% - chronic toxicity • C. A negative average of the weight change of the animals> 4 g up to day 5 - chronic toxicity
The data obtained upon testing the compounds in vivo in comparison with the P388 leukemic tumor model in mice are shown in the following table: […]

P388 model = conditions: cited from earlier work
[2] = mice, therapeutic doses; cited from earlier work
A-549 = test: In vitro test, IC50 on A-549; type: cell-based; conditions: Homo sapiens, A549; A-549, in vitro
Text: (§1) On the other hand, the results of the tests in vitro carried out on compounds (IIIa) and (IIIb) were the following: […]

P-388 = test: In vitro test, IC50 on P-388; type: cell-based; conditions: Mus musculus, P388; P-388, in vitro
Text: as §1

HT-29 = test: In vitro test, IC50 on HT-29; type: cell-based; conditions: Homo sapiens; HT-29, in vitro
Text: as §1

MEL-28 = test: In vitro test, IC50 on MEL-28; type: cell-based; conditions: Homo sapiens, SK-MEL-28; MEL-28, in vitro
Text: as §1

Q: Which “%C/T” value ([1]; inject. dose 0.500 mg/kg) does the source give for `COC(=O)c1cc2c(n1C)C(=O)C=C1N(C(=O)c3cc4cc(OC)c(OC)c(OC)c4[nH]3)CC3CC123` (centres unmarked) [(VI), methyl 2-(5,6,7-trimethoxy-1H-indole-2-carbonyl)-5-methyl-4-oxo-1,2,4,5,8a-hexahydrocyclopropa[c]pyrrolo[3,2-e]indole-7-carboxylate] here?
A: Its value is 210.9%.

Q: What about the “Significant activity (class of %C/T)” value ([1]; inject. dose 0.500 mg/kg) of the same molecule?
A: The value was “** (Significant activity (strong): C/T > =175%)”.

Q: With `O=C(Nc1ccc2[nH]c(C(=O)N3CC4CC45C3=CC(=O)c3ccccc35)cc2c1)c1cc2ccccc2[nH]1` (centres unmarked) [CBI-Ind2] as the molecule, how does the “results in the P388 model in vivo” value (P388 model) read?
A: The value was “very good results”.

Q: Which results are given for “methyl 2-[5-[(benzofuran-2-ylcarbonyl) amino]-1H-indol-2-carbonyl]-5-methyl-4-oxo,1,2,4,5,8,8,a-hexahydrocyclopropa[c]pyrrolo[3,2-e]indole-7-carboxylate [(IV)]”?
A: %C/T ([1]; inject. dose 0.300 mg/kg): 251.1%; Significant activity (class of %C/T) ([1]; inject. dose 0.300 mg/kg): ** (Significant activity (strong): C/T > =175%)

Q: Which delayed lethality [2] does the source give for `COc1c(O)c2c(c3cc(C(=O)N4CCc5c4c(O)c(OC)c4[nH]c(C(=O)N6CC7CC78C6=CC(=O)c6[nH]cc(C)c68)cc54)[nH]c13)CCN2C(N)=O` (centres unmarked) [CC-1065] here?
A: The delayed lethality was “producing delayed deaths in mice at therapeutic doses”.

Q: For `COC(=O)c1cn(C)c2c(O)cc3c(c12)C(CCl)CN3C(=O)c1cc2cc(OC)c(OC)c(OC)c2[nH]1` (centres unmarked) [Compound (V), methyl 6-(5,6,7-trimethoxy-1H-indole-2-carbonyl)-8-chloromethyl-4-hydroxy-3-methyl-3,6,7,8-tetrahydropyrrololo[3,2-e]indole-1-carboxylate], which “%C/T” value ([1]; inject. dose 0.050 mg/kg) is on record?
A: The value was 133.9%.

Q: And the “Significant activity (class of %C/T)” value ([1]; inject. dose 0.050 mg/kg)?
A: The value was “** (Significant activity (strong): C/T > =175%)”.

Q: Which IC50 (A-549) does the source give for `COC(=O)c1cn(C)c2c(OC(C)=O)cc3c(c12)C(CCl)CN3C(=O)c1cc2cc(NC(=O)c3cc4ccccc4o3)ccc2[nH]1` (centres unmarked) [IIIa, methyl 4-acetoxy-6-{5-[(benzofuran-2-yl-carbonyl)-amino]1H-indole-2-carbonyl}-8-chloromethyl-3-methyl-3,6,7,8-tetrahydropyrrolo[3,2-e]indole-1-carboxylate] here?
A: The IC50 was 0.05 ng/mL (≈ 0.0782 nM).

Q: And the IC50 (P-388)?
A: Its IC50 is 0.01 ng/mL (≈ 0.0156 nM).

Q: What about the IC50 (HT-29) of the same molecule?
A: The IC50 was 0.25 ng/mL (≈ 0.391 nM).

Q: What about the IC50 (MEL-28) of the same molecule?
A: The IC50 was 0.25 ng/mL (≈ 0.391 nM).

Q: With `COC(=O)c1cn(C)c2c(O)cc3c(c12)C(CCl)CN3C(=O)c1cc2cc(NC(=O)c3cc4ccccc4o3)ccc2[nH]1` (centres unmarked) [Compound (III), methyl 6-{5-[(benzofuran-2-ylcarbonyl)-amino]1H-indole-2-carbonyl}-8-chloromethyl-4-hydroxy-3-methyl-3,6,7,8,tetrahydropyrrolo[3,2-e]indole-1-carboxylate] as the molecule, how does the “%C/T” value ([1]; inject. dose 0.500 mg/kg) read?
A: Its value is >391.3%.

Q: For `Cc1c[nH]c2c1[C@@]13C[C@@H]1CN(C(=O)c1cc4cc(NC(=O)c5cc6ccccc6o5)ccc4[nH]1)C3=CC2=O` [Adocelesine], which delayed lethality [2] is on record?
A: The delayed lethality was “without provoking delayed lethality”.
